The record followed here is US6605628B1, “Method of using 5-(arysulfonyl)-, 5-(arylsulfanyl)-and 5-(arylsulfanyl)thiazolidine-2,4-diones for inhibition of farnesyl-protein transferase” (Wyeth Holdings Corporation, priority 2001, dated 2003).

Assay [1] addresses T1, FPTase (Homo sapiens, UniProt P49354+P49356). Nature of the assay: in vitro FTase Inhibition Assay, K-Ras used as substrate for farnesylation. The note with it: Table I. It counts as biochemical. How it is done:
(§1) Enzyme test procedure: FPTase inhibition in vitro assay was performed according to James, G. L., Brown, M. S., and Goldstein, J. L., Methods in Enzymology, 1995, 255, 38-46; and Garcia, M. A., et al., J. Biol. Chem., 1993, 268, 18415-18420.
(§2) Materials—Purified FPTase (Moomaw, J. F. and Casey, P. J., J. Biol. Chem., 1992, 267, 17438-17443), purified His6-Ras, inhibitor compounds at 10 mg/ml or 10 mM in 100% DMSO, ^3H-FPP (50,000 dpm/pmol) Amersham, TCA/SDS (6%/2%), TCA (6%), Glass fiber filters ([…]), vacuum manifold or 96 well filtration plates.
(§3) Methods—1. Dilute FPTase inhibitors from stock solutions to 2.5× in 2.5% DMSO, 10 mM DTT, 0.5% octyl-B-glucoside. 2. Solution #1 is added to FPTase reaction in a volume of […]. 3. Standard reaction mix, […], contains 50 mM Tris (7.5), 10 mM ZnCl2, 3 mM MgCl2, 20 mM KCl, 5 mM DTT, 0.2% octyl-B-glucoside, 1% DMSO, […] His6-Ras, 10 ng FPTase, and various concentrations of FPTase inhibitors. 4. Incubate for 30-90 min at 25° C. 5. Stop reactions with TCA/SDS (6%/2%), hold at 4° C. for 45-60 min. 6. Filter by manifold or 96 well plate, wash filter 3-5× with TCA (6%). 7. Add scintillant to filters, measure ^3H-FPP incorporation into Ras protein.
(§4) Analysis of Results—Percent inhibition by test compounds is determined by the following:
(§5) (cpm from precipitated Ras with test compounds)−(background cpm)×100=% inhibition.
(§6) (cpm from precipitated Ras without test compounds)−(background cpm)

Assay [2] concerns the target T1, FPTase. Nature of the assay: in vitro FTase Inhibition Assay, H-Ras used as substrate for farnesylation. The note with it: Table I, read-out: IC50 H-Ras*. In kind it is biochemical. How it is done:
as §1, §2, §3, §4, §5, §6

pIC50: −log10 of the molar value.

The term pIC50 denotes −log10 of the IC50, conventionally taken in molar units. In the case of “5-[5-(2-Methyl-4-nitrophenyl)pent-4-ynyl]-5-[4-(pyridin-4-yloxy)-benzenesulfonyl]thiazolidine-2,4-dione [Example 128]”, the pIC50 on FPTase [1] is 6.66 to 7.70; on FPTase [2] it was 7.49 to 9.00.

As to “5-[5-(4-Chloro-2-methylphenyl)pent-4-ynyl]-5-(4-trifluoromethoxybenzenesulfonyl)-thiazolidine-2,4-dione [Example 140]”, the pIC50 was 5.44 to 6.00 on FPTase [1] and 6.52 to 6.82 at FPTase [2].

For the compound `COc1ccc(S(=O)(=O)C2(CCCC#Cc3cc(NC(=O)OC(C)(C)C)ccc3C)SC(=O)NC2=O)cc1` (single isomer, unassigned; less polar) [Example 222, Enantiomer of (3-{5-[5-(4-Methoxybenzenesulfonyl)-2,4-dioxothiazolidin-5-yl]pent-1-ynyl}-4-methylphenyl)carbamic Acid tert-Butyl Ester (Less Polar)], the pIC50 is 7.48 at FPTase [1] and 8.48 on FPTase [2].

As to `COc1ccc(S(=O)(=O)C2(CCCC#Cc3cc(NC(=O)OC(C)(C)C)ccc3C)SC(=O)NC2=O)cc1` (single isomer, unassigned; more polar) [Example 223, Enantiomer of (3-{5-[5-(4-Methoxybenzenesulfonyl)-2,4-dioxothiazolidin-5-yl]pent-1-ynyl}-4-methylphenyl)carbamic Acid tert-Butyl Ester (More Polar)], the pIC50 was less than 6.00 against FPTase [1] and 7.20 on FPTase [2].

In the case of `COc1ccc(S(=O)(=O)C2(CCCC#Cc3ccc(Cl)cc3)SC(=O)NC2=O)cc1` (centres unmarked) [Example 97, 5-[5-(4-Chlorophenyl)pent4-ynyl]-5-(4-methoxyphenylsulfonyl)-thiazolidine-2,4-dione], the negative logarithm of the IC50 (pIC50) against FPTase [1] was 5.26 to 5.46; at FPTase [2] it was 6.82 to 7.12.

As for `O=C1NC(=O)C(CCCC#Cc2ccc(Cl)cc2)(S(=O)(=O)c2ccc(F)cc2)S1` (centres unmarked) [Example 105, 5-[5-(4-Chlorophenyl)pent-4-ynyl]-5-(4-fluorobenzenesulfonyl)thiazolidine-2,4-dione], the pIC50 against FPTase [1] was 5.77 to 5.82; at FPTase [2] it was 6.82 to 7.30.

As to `O=C1NC(=O)C(CCCC#Cc2ccc(Cl)cc2)(S(=O)(=O)c2cccc3cccnc23)S1` (centres unmarked) [Example 109, 5-[5-(4-Chlorophenyl)pent-4-ynyl]-5-(quinoline-8-sulfonyl)thiazolidine-2,4-dione], the pIC50 against FPTase [1] is 5.68 to 5.85; at FPTase [2], 6.89 to 7.19.

`O=C1NC(=O)C(CCCC#Cc2ccc(Cl)cc2)(S(=O)(=O)c2ccc([N+](=O)[O-])cc2)S1` (centres unmarked) [Example 110, 5-[5-(4-Chlorophenyl)pent-4-ynyl]-5-(4-nitrobenzenesulfonyl)thiazolidine-2,4-dione]: the negative logarithm of the IC50 (pIC50) against FPTase [1] is 5.15; at FPTase [2] it was 6.40.

In the case of `O=C1NC(=O)C(CCCC#Cc2cc(Cl)ccc2Cl)(S(=O)(=O)c2ccc(I)cc2)S1` (centres unmarked) [Example 115, 5-[5-(2,5-Dichloro-phenyl)pent-4-ynyl]-5-(4-iodobenzenesulfonyl)-thiazolidine-2,4-dione], the figures for the pIC50 against FPTase [1] and on FPTase [2] were 6.64 to 6.80 and 6.49 to 7.92, respectively.

As for `COc1ccc(S(=O)(=O)C2(CCCC#Cc3cc([N+](=O)[O-])ccc3C)SC(=O)NC2=O)cc1` (centres unmarked) [Example 122, 5-(4-Methoxybenzenesulfonyl)-5-[5-(2-methyl-5-nitrophenyl)pent-4-ynyl]thiazolidine-2,4-dione], the results for the pIC50 against FPTase [1] and on FPTase [2] were 6.00 to 6.64 and 7.30 to 7.52, respectively.

With `COc1ccc(S(=O)(=O)C2(CCCC#Cc3cc([N+](=O)[O-])ccc3OC)SC(=O)NC2=O)cc1` (centres unmarked) [Example 123, 5-(4-Methoxybenzenesulfonyl)-5-[5-(2-methoxy-5-nitrophenyl)pent-4-ynyl]thiazolidine-2,4-dione], the values for the pIC50 on FPTase [1] and at FPTase [2] were 5.55 to 6.00 and 7.09 to 7.10, respectively.

With `COc1ccc(S(=O)(=O)C2(CCCC#Cc3ccc([N+](=O)[O-])cc3C)SC(=O)NC2=O)cc1` (centres unmarked) [Example 130, 5-(4-Methoxybenzenesulfonyl)-5-[5-(2-methyl-4-nitrophenyl)-pent-4-ynyl]-thiazolidine-2,4-dione], the values for the pIC50 on FPTase [1] and on FPTase [2] were 6.00 to 6.49 and 7.25 to 7.64, respectively.

`COc1ccc(S(=O)(=O)C2(CCCC#Cc3ccc([N+](=O)[O-])cc3OC)SC(=O)NC2=O)cc1` (centres unmarked) [Example 132, 5-(4-Methoxybenzenesulfonyl)-5-[5-(2-methoxy-4-nitrophenyl)pent-4-ynyl]thiazolidine-2,4-dione]: the pIC50 against FPTase [1] was 6.00 to 6.68; on FPTase [2], 7.14 to 7.39.

With `COc1ccc(S(=O)(=O)C2(CCCC#Cc3cc(F)cc([N+](=O)[O-])c3)SC(=O)NC2=O)cc1` (centres unmarked) [Example 133, 5-[5-(3-Fluoro-5-nitrophenyl)pent-4-ynyl]-5-(4-methoxybenzenesulfonyl)-thiazolidine-2,4-dione], the negative-log IC50 (pIC50) at FPTase [1] is 6.00 to 7.27; on FPTase [2], 6.70 to 7.40.

As to `COc1ccc(S(=O)(=O)C2(CCCC#Cc3ccc(Cl)cc3C)SC(=O)NC2=O)cc1` (centres unmarked) [Example 142, 5-[5-(4-Chloro-2-methylphenyl)pent-4-ynyl]-5-(4-methoxybenzene-sulfonyl)-thiazolidine-2,4-dione], the pIC50 was 6.00 to 7.40 against FPTase [1] and 7.52 to 7.77 at FPTase [2].

`COc1ccc(S(=O)(=O)C2(CCCC#Cc3ccc(Br)cc3C)SC(=O)NC2=O)cc1` (centres unmarked) [Example 143, 5-[5-(4-Bromo-2-methy-phenyl)pent-4-ynyl]-5-(4-methoxybenzene-sulfonyl)-thiazolidine-2,4-dione]: the negative logarithm of the IC50 (pIC50) was 6.07 against FPTase [1] and 7.52 on FPTase [2].

As to `COc1ccc(S(=O)(=O)C2(CCCC#Cc3ccc(NC(=O)OC(C)(C)C)cc3)SC(=O)NC2=O)cc1` (centres unmarked) [Example 145, (4-{5-[5-(4-Methoxybenzensulfonyl)-2,4-dioxothiazolidin-5-yl)pent-1-ynyl}phenyl)carbamic Acid tert-Butyl Ester], the pIC50 was 5.00 to 5.25 against FPTase [1] and 5.77 to 5.92 at FPTase [2].

As to `Cc1ccc(C(=O)NC(C)(C)C)cc1C#CCCCC1(S(=O)(=O)c2ccc(I)cc2)SC(=O)NC1=O` (centres unmarked) [Example 147, N-tert-Butyl-3-{5-[5-(4-iodobenzenesulfonyl)-2,4-dioxothiazol-idin-5-yl]-pent-1-ynyl}-4-methyl-benzamide], the pIC50 against FPTase [1] was 7.00 to 7.10; at FPTase [2], 6.68 to 8.17.

`COc1ccc(S(=O)(=O)C2(CCCC#Cc3ccc(NC(=O)OC(C)(C)C)cc3C)SC(=O)NC2=O)cc1` (centres unmarked) [Example 149, (4-{5-[5-(4-Methoxybenzenesulfonyl)-2,4-dioxo-thiazolidin-5-yl)pent-1-ynyl}-3-methylphenyl)carbamic Acid tert-Butyl Ester]: the values for the pIC50 against FPTase [1] and at FPTase [2] were 5.31 to 6.00 and 6.30 to 6.35, respectively.

Take `COc1ccc(S(=O)(=O)C2(CCCC#Cc3ccc(NC(=O)OC(C)(C)C)cc3C(F)(F)F)SC(=O)NC2=O)cc1` (centres unmarked) [Example 151, (4-{5-[5-(4-Methoxybenzenesulfonyl)-2,4-dioxothiazolidin-5-yl]pent-1-ynyl}-3-trifluoromethylphenyl)-carbamic Acid tert-Butyl Ester]: the values for the negative-log IC50 (pIC50) against FPTase [1] and on FPTase [2] were 6.00 to 6.68 and 6.15 to 6.28, respectively.

For the compound `COc1ccc(S(=O)(=O)C2(CC#Cc3ccc(-c4ccccc4)cc3)SC(=O)NC2=O)cc1` (centres unmarked) [Example 171, 5-(3-Biphenyl-4-yl-prop-2-ynyl)-5-(4-methoxybenzenesulfonyl)-thiazolidine-2,4-dione], the negative-log IC50 (pIC50) against FPTase [1] was 5.48; at FPTase [2], 6.70.

`COc1ccc(S(=O)(=O)C2(CCCC#Cc3cc(NC(=O)OCc4ccccc4)ccc3C)SC(=O)NC2=O)cc1` (centres unmarked) [Example 175, (3-{5-[5-(4-Methoxybenzenesulfonyl)-2,4-dioxothiazolidin-5-yl]pent-1-ynyl}-4-methylphenyl)carbamic Acid Benzyl Ester]: the figures for the pIC50 at FPTase [1] and at FPTase [2] were 6.28 to 7.28 and 7.49 to 8.00, respectively.

Regarding `COc1ccc(S(=O)(=O)C2(CCCC#Cc3cc(NC(=O)OCc4ccc([N+](=O)[O-])cc4)ccc3C)SC(=O)NC2=O)cc1` (centres unmarked) [Example 176, (3-{5-[5-(4-Methoxybenzenesulfonyl)-2,4-dioxothiazolidin-5-yl]pent-1-ynyl}-4-methylphenyl)carbamic Acid 4-Nitro- Benzyl Ester], the results for the pIC50 on FPTase [1] and on FPTase [2] were 6.49 to 7.52 and 7.49 to 8.49, respectively.

As to `COc1ccc(S(=O)(=O)C2(CCCC#Cc3cc(NC(=O)Oc4ccc(Cl)cc4)ccc3C)SC(=O)NC2=O)cc1` (centres unmarked) [Example 177, (3-{5-[5-(4-Methoxybenzenesulfonyl)-2,4-dioxothiazolidin-5-yl]pent-1-ynyl}-4-methylphenyl)carbamic Acid 4-Chloro-phenyl Ester], the pIC50 at FPTase [1] was 7.00 to 7.07; at FPTase [2], 7.49 to 7.96.

In the case of `COC(=O)Nc1ccc(C)c(C#CCCCC2(S(=O)(=O)c3ccc(OC)cc3)SC(=O)NC2=O)c1` (centres unmarked) [Example 178, (3-{5-[5-(4-Methoxybenzenesulfonyl)-2,4-dioxothiazolidin-5-yl]pent-1-ynyl}-4-methylphenyl)carbamic Acid Methyl Ester], the pIC50 on FPTase [1] was 8.00; on FPTase [2], 7.49 to 7.77.
